We go through seven molecules from paper PMC12635197, “Discovery of first-in-class inhibitors of the TRF1:TIN2 protein:protein interaction by fragment screening” (Scientific Reports, 2025).

Data set [1] has as its target T1, TRF1TRFH (Homo sapiens, UniProt P54274).
T1 construct: encoding residues 47–268, UniProt identifier P54274-1; His6-MBP (TEV-cleavable) (N, cleaved yes); made in house; host or cells: E. coli BL21-CodonPlus(DE3)-RIL
T1 sequence (P54274 47-268): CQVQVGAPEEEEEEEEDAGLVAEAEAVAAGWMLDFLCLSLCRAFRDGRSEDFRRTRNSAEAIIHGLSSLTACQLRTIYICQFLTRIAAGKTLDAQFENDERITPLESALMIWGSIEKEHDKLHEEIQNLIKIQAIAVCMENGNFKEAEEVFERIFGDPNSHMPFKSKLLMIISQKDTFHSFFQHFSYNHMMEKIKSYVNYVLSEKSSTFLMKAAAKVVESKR
Kind of data set: LO-NMR CPMG assay (relaxation-edited), singletons. The following applies: single experiment; for CPMG reduction: average peak intensity reduction on addition of TRF1TRFH, 250 µM ligand, 20 µM protein; for CPMG recovery: net recovery of peak intensity on addition of TIN2TBM peptide (40 µM) to compound plus protein. The format is binding. The method, then:
We next used a LO-NMR CPMG assay to orthogonally validate XChem hits in solution, aiming to eliminate false positives and rank hit matter for follow-up studies. Compounds were tested as singletons and prepared in two samples containing either compound alone (sample 1) or compound + TRF1TRFH (sample 2).
The fragment screen by LO-NMR was carried out using conditions described previously, with some modifications. Fragments were dispensed in triplicate into a 384-well plate using an Echo 550 liquid handler to give a final ligand concentration of 250 µM (total sample volume of 40 µL). 40 µL of TRF1TRFH protein (in NMR buffer; 20 µM final protein concentration in the assay) were added to the ‘protein’ samples; 40 µL of TRF1TRFH protein and TIN2TBM peptide (21-mer, Ac-[…]-CONH2; 40 µM final concentration in the assay) were both added to the ‘competitor’ samples; 40 µL NMR buffer were added to the ‘compound-only’ samples. Solutions were transferred to 1.7-mm NMR tubes using a Bruker SamplePro Tube robotics system. ^1H NMR spectra were recorded on a Bruker AVIII 500 MHz spectrometer at 298 K, equipped with a 1.7-mm TXI probe, with samples in 1.7-mm SampleJET NMR tubes (Bruker). DMSO and water signals were dampened. A relaxation spin filter was applied at 400 ms. Data were processed using Bruker Topspin 4.0. Lines were broadened with LB = 3.0, and the baseline was corrected between 6.0 and 10.0 ppm.
The data were then analysed using the MNova Screen software. Only peaks between 5.5 and 9.5 ppm were considered. Peaks with a height of < 5% maximum peak height within the region of interest were considered noise, and the minimum matched peak level was set at > 51%. The relative peak intensity change (I) was calculated for all peaks in the 5.5–9.5 ppm region, for each compound, as described previously. The average integral for all peaks between 6.0 and 10.0 ppm was calculated, and the differences between compound-only, compound-plus-protein, and compound-plus-protein-plus-competitor samples were compared. The net recovery was calculated by subtracting the reduction in peak integral of the compound-plus-protein samples from the compound-plus-protein-plus-competitor samples.
For hit validation, relaxation-edited LO-NMR experiments were repeated as described above on single compounds instead of fragment cocktails.

Data set [2] is described as follows: Fragment solubility assay (quantitative 1H NMR). The format is physicochemical. The settings on record: Supplementary Table 1. The method, then:
Aqueous solubility test samples were prepared by adding 3.6 µL compound (50 mM stock in 100% DMSO-d6) to 176.4 µL NMR buffer in a microcentrifuge tube. The samples were incubated overnight and transferred to a 3-mm NMR tube (Bruker, Part No. Z112272). ^1H NMR spectra were recorded, with the DMSO and water signals dampened. 1 mM caffeine (Sigma, C1778 in PBS (pH 7.4) with 1% DMSO-d6) was used as a standard to quantify the ligand signals and determine the concentration of samples.
NMR data were collected on a Bruker Avance Neo 600-MHz spectrometer equipped with a 5 mm TCI-CryoProbe. The ^1H spectrum was referenced to the internal deuterated solvent. The operating frequency for ^1H was 600 MHz. All NMR data were acquired at the temperature of 298 K. All data were acquired and processed using Bruker Topspin 4.0. The quantitative ^1H-NMR spectrum was acquired using a Bruker standard 1D lc1pngppsf2 pulse sequence with 32 scans. The sweep width was 6.2 ppm with O1P set to 8.8 ppm, and the FID contained 16k time-domain data points. Relaxation delay was set to 20 s. Water signal was suppressed.

Data set [3] addresses T1, TRF1TRFH. Kind of data set: Crystal soaking of TRF1TRFH crystals. The following applies: soaking into TRF1TRFH crystals; Supplementary Table 1. An excerpt:
Attempts to soak TRF1TRFH crystals with the commercially available analogues of the XChem hit 5 were also unsuccessful. Only one slightly smaller analogue (22) could be soaked into TRF1TRFH crystals, albeit with an ambiguous binding mode. […] In the case of compound 5, we observed a hydrogen bond between the amino group of the fragment and a backbone carbonyl in the neighbouring protein chain (Fig. 2i). […] Additionally, the pocket normally occupied by the conserved phenylalanine residue of the TIN2 F-X-L-X-P motif was fully obstructed by a crystal contact with a TRF1TRFH copy in an adjacent asymmetric unit, further limiting the possibility of obtaining XChem hits outside of the leucine pocket.
TRF1TRFH crystals in the P3_121 space group were grown by sitting drop vapour diffusion in SWISSCI 3-drop plates using similar crystallisation conditions to those described previously. The total drop volume was 300 nL, consisting of 150 nL of TRF1TRFH (31.2 mg/mL) and 150 nL of reservoir solution (1% PEG8000, 100 mM MES pH 6.0, 1–12 mM Mg(OAc)2, 10–15% glycerol), whilst the reservoir volume was 35 µL. Crystallisation plates were set up using an SPT Labtech mosquito Xtal2 liquid handler. Cuboid-shaped crystals grew to their maximum size (300 μm across) within 24 h. Crystals were cryoprotected through the addition of 180 nL of 40% glycerol to the crystal drop prior to harvesting, giving a final glycerol concentration of […] (accounting for the glycerol already in the crystallisation conditions). The crystals were then flash-frozen in liquid nitrogen, and data were collected at the Diamond Light Source beamlines I04 and I04-1 and processed automatically using the Xia2 Dials pipeline[53],[54]. The TRF1TRFH structure was solved by molecular replacement in Phaser MR[55] within CCP4[56] using the previously published TRF1TRFH structure as a search model (PDB: 1H6O)[31], after having first stripped the search model of solvent molecules and ligands. Structure refinement was done using Refmac[57] and Buster[36], and model correction and building was done using Coot 0.9.6[35].
The DSi-Poised library (768 fragment, Enamine)[32], the EUbOPEN DSiP extension library (108 fragments) and the FragLite library (31 fragments)[33] were screened against TRF1TRFH crystals. Compounds at 500 mM in DMSO stocks were dispensed into selected crystal drops as singletons using an Echo 550 liquid handler to give a final concentration of 50 mM (10% DMSO final concentration). After incubation for 1 h at 20 °C, 180 nL of glycerol (40% stock, final drop concentration 28.8–32.5%) were added to each drop immediately prior to crystal harvesting and flash-freezing in liquid nitrogen.
Data were collected on the I04-1 beamline at Diamond Light Source. […]

Another data set has as its target TIN2 TBM (Homo sapiens) (UniProt Q9BSI4). The following applies: cited from earlier work.
The target of data set [4] is T2, TRF1 (telomeric repeat-binding factor 1), full length, subunit of recombinant shelterin (human), P54274.
T2 chain: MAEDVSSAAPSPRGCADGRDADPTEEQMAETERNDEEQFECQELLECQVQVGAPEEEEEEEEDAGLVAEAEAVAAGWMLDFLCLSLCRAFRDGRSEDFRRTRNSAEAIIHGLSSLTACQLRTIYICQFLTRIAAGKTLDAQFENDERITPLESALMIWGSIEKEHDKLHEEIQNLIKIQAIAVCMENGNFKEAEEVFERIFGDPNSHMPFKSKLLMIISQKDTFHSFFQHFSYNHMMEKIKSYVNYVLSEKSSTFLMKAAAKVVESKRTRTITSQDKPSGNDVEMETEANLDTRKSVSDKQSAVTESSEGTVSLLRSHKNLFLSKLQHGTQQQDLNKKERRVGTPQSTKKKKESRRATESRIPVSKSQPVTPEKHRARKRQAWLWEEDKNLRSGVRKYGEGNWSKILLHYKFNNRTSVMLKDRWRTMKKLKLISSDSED
Description: mass photometry; SEC-purified shelterin 1.25 µM incubated 1 h at room temperature with 100-300 µM compound 40, cross-linked with 0.1% glutaraldehyde, diluted to 50 nM. The following applies: remark: other sources report otherwise.

Data set [5] deals with T3, (StrepII)2-TEV-tagged TIN2, subunit of recombinant shelterin (UniProt Q9BSI4-1 1-451).
T3 construct: TIN2, gene NM_001099274.1, codon-optimised; a TEV site lies between tag and protein; The separately made control protein is called TIN2L; The discussion says that the complex carries a short peptidic tag on TIN2; source: Sf9, co-expressed with the other shelterin subunits (MultiBac baculovirus), purified (StrepTrap, serial SEC)
T3 sequence (looked up): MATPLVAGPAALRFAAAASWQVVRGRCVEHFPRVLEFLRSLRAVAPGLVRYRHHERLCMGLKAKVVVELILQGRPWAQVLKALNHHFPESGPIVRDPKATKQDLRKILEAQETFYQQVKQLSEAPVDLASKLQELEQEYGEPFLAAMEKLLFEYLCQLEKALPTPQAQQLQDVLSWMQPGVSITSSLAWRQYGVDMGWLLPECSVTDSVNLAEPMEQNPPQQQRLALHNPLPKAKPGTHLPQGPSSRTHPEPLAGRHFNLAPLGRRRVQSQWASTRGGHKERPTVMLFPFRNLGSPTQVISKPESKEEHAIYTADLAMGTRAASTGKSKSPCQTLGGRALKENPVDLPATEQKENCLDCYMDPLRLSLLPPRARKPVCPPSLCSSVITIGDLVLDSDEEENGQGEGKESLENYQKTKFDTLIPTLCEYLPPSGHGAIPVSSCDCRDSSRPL
Description: mass photometry; SEC-purified shelterin without compound; complex of around 700 kDa; 50 mM HEPES-NaOH pH 8.0, 300 mM NaCl. The settings on record: both partners purified.

Data set [6] deals with T4, TRFH domain of TRF1 (TRF1_(TRFH)), residues 47–268 (human, UniProt P54274-1 47-268).
T4 construct: cDNA codon-optimised for E. coli; also called TRF homology (TRFH) domain; source: E. coli BL21-CodonPlus(DE3)-RIL, purified (HisTrap, TEV cleavage, second HisTrap, Superdex 200 SEC); not shown: His6, N-terminal, cleaved; MBP, N-terminal, cleaved
T4 sequence (looked up): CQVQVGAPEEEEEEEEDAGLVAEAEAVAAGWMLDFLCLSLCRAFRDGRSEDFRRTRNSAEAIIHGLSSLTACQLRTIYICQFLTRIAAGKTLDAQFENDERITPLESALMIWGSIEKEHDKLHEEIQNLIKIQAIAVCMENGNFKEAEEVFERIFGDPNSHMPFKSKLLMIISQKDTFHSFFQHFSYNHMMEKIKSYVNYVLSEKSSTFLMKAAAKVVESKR
Description: fluorescence polarisation; direct titration: TRF1_(TRFH) 20 to 0.02 µM (11 points) against 25 nM TIN2-FAM; 25 mM HEPES-NaOH pH 7.5, 100 mM NaCl, 1 mM TCEP, 0.05% w/v CHAPS; 1 h at room temperature. The settings on record: both partners purified.

Where no end group is shown, it is not given here. FAM = 5(6)-carboxyfluorescein

With `COc1ccc2sc(N)nc2c1` [Compound 20], at TRF1TRFH [1], the CPMG reduction came to 25% and the CPMG recovery worked out at 0%. Moreover, the “Aq. Sol.” value in data set [2] is recorded as 580 µM. Besides, the Crystal structure entry at TRF1TRFH [3] was “Yes”.

For `COc1cc2nc(N)sc2cc1OC` [Compound 21], at TRF1TRFH [1], the CPMG reduction is recorded as 14% and the CPMG recovery turned out to be 12%. In addition, in data set [2], the “Aq. Sol.” value is listed as 190 µM. The Crystal structure entry on TRF1TRFH [3] is on record as “No”.

Consider `COc1ccc2sc(C)nc2c1` [Compound 22], for which, at TRF1TRFH [1], the CPMG reduction is 18% and the CPMG recovery came out at 9%. For the same molecule, the “Aq. Sol.” value in data set [2] is given as 790 µM. Besides, the Crystal structure entry at TRF1TRFH [3] is “Yes”.

Consider `Nc1nc2cc3c(cc2s1)OCO3` [Compound 24], for which, on TRF1TRFH [1], the CPMG reduction came out at 28% and the CPMG recovery is 11%. Moreover, the “Aq. Sol.” value in data set [2] was found to be 400 µM. The Crystal structure result on TRF1TRFH [3] is listed as “No”.

With TRF1 TRFH (from UniProt P54274), the Kd (commonly the equilibrium constant for the complex coming apart) with TIN2 TBM (Homo sapiens) is 300 nM.

B1: TRF1 (telomeric repeat-binding factor 1), full length, subunit of recombinant shelterin (natural protein, human, UniProt P54274-1 1-439, looked up)
chain: MAEDVSSAAPSPRGCADGRDADPTEEQMAETERNDEEQFECQELLECQVQVGAPEEEEEEEEDAGLVAEAEAVAAGWMLDFLCLSLCRAFRDGRSEDFRRTRNSAEAIIHGLSSLTACQLRTIYICQFLTRIAAGKTLDAQFENDERITPLESALMIWGSIEKEHDKLHEEIQNLIKIQAIAVCMENGNFKEAEEVFERIFGDPNSHMPFKSKLLMIISQKDTFHSFFQHFSYNHMMEKIKSYVNYVLSEKSSTFLMKAAAKVVESKRTRTITSQDKPSGNDVEMETEANLDTRKSVSDKQSAVTESSEGTVSLLRSHKNLFLSKLQHGTQQQDLNKKERRVGTPQSTKKKKESRRATESRIPVSKSQPVTPEKHRARKRQAWLWEEDKNLRSGVRKYGEGNWSKILLHYKFNNRTSVMLKDRWRTMKKLKLISSDSED
notes: TRF1, gene NM_017489.2, codon-optimised; the UniProt identifier is printed for the TRFH construct of the same protein; Further details of the shelterin construct 'to be reported elsewhere'; also called full-length TRF1
B1: the values for the stoichiometry N in data set [4] and in data set [5] were 2 and 2 TRF1 per TIN2, respectively.

B2: TIN2TBM peptide labelled with an N-terminal 5(6)-carboxyfluorescein (TIN2-FAM) (peptide)
chain: {FAM}-RHFNLAPLGRRRVQSQWASTR
Consider B2, for which the Kd in data set [6] is 400 nM.
